Experimental data as given in patent publication US6461997B1, “Triazole sulfones having herbicidal activity” (Monsanto Technology LLC, priority 1999, dated 2002).

Legend:
[1] = test system: AGRRE (quackgrass (seedling)); assay: Pre-plant incorporated (PPI) herbicidal activity, cool season; type: in vivo, Elymus repens
Procedure: (§1) In another set of tests, the pre-plant incorporated (PPI) activity of compounds of this invention was evaluated on the same species as for the pre-emergence tests described above. In the PPI tests the following procedure, designed to simulate PPI application, was used.
(§2) A pre-prepared topsoil mixture (described above) was placed in a pot and compacted to a depth of 1.0 to 1.25 cm from the top of the pot. Seeds of each of several monocotyledonous and dicotyledonous annual plant species were placed on top of the soil. A sufficient quantity of soil to cover the seeds and level fill the pot was weighed into an open container. A known amount of the test compound was dissolved or suspended in an organic solvent and applied by spraying to this cover soil. The cover soil was thoroughly mixed to distribute the test compound throughout the cover soil, and was then applied as a cover layer over the seeds. Untreated soil was used as a cover layer for control pots. After treatment the plants were placed in a greenhouse where they received 0.64 cm of overhead irrigation. All subsequent watering consisted of a light overhead mist and/or subirrigation as needed for germination and growth. Tables 9 and 10 below relate to warm season plant species which were placed after pre-emergence treatment in a greenhouse with a 30/21° C. day/night temperature regime. Tables 11 and 12 below relates to cool season plant species placed after pre-emergence treatment in a greenhouse or growth chamber with an 18/13° C. day/night temperature regime. Only the compounds of Examples 1, 6, 8, 11, 13 and 15-20 were included in PPI tests.
(§3) Approximately 14 days after planting and treating, the plants were observed and herbicidal efficacy recorded as percent inhibition by comparison with untreated plants.

[2] = test system: DIGSA (large crabgrass); assay: Pre-plant incorporated (PPI) herbicidal activity, warm season; type: in vivo, Digitaria sanguinalis
Procedure: as §1, §2, §3

[3] = test system: POLCO (wild buckwheat); assay: Pre-emergence herbicidal activity, cool season; type: in vivo, Polygonum convolvulus; conditions: lowest tested rate with 80% or greater inhibition; rates 300, 100, 30, 10 g/ha; about 14 days
In short: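 Seeds were sown in sterilized, fertilized topsoil, covered, and the soil surface was sprayed with compound in 50:50 acetone/water at 300, 100, 30 and 10 g/ha. Pots were held at 30/21 °C day/night (PANMI, DIGSA) or 18/13 °C (ALOMY, POLCO). GR80 came from percent inhibition versus untreated plants at about 14 days.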

[4] = test system: SASKR (russian thistle); assay: Pre-plant incorporated (PPI) herbicidal activity, cool season; type: in vivo, Salsola kali
Procedure: as §1, §2, §3

[5] = test system: SORHA (johnsongrass (seedling)); assay: Pre-emergence herbicidal activity, warm season; type: in vivo, Sorghum halepense; conditions: GR80 = lowest tested rate (300, 100, 30, 10 g/ha) with 80% or greater inhibition; approx. 14 days after treating; 30/21° C.
In short: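 GR80 values derive from percent inhibition relative to untreated plants, read roughly 14 days after sowing and pre-emergence soil-surface treatment (compound in 50:50 acetone/water; rates typically 10, 30, 100, 300 g/ha). Warm-season weeds grew at 30/21° C day/night, cool-season ones at 18/13° C; an asterisk marks activity without reaching 80% at the highest rate.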

[6] = test system: barley (HORVX); assay: Selectivity test, PPI, cool season crop; type: in vivo, Hordeunm vulgare; conditions: PPI application
Procedure: as §2, §3
Additional pre-emergence and PPI tests were conducted by the procedures described above, on warm and cool season weed species in the presence of crop species, to assess herbicidal selectivity. Crop species included in warm season tests were corn (Zea mays, ZEAMX), rice (Oryza sativa, ORYSA) and soybean (Glycine max, GLYMX). Crop species included in cool season tests were wheat (Triticum aestivum, TRZAW), barley (Hordeunm vulgare, HORVX) and oilseed rape (Brassica napus, BRSNS).
Tables 15 and 16 relate to pre-emergence and PPI tests respectively on warm season species. Table 17 relates to pre-emergence tests on cool season species.

[7] = weed, PPI application, 100 g/ha
[8] = weed, PPI application, 300 g/ha
[9] = weed, PPI application, 900 g/ha
[10] = pre-plant incorporated, lowest tested rate with 80% or greater inhibition, about 14 days

Compound: CCN(CC)C(=O)n1cnc(S(=O)(=O)C(F)(F)SC)n1 [Example 9]
- Percent inhibition AGRRE ([1]; weed, PPI application, 30 g/ha): 0%
- Percent inhibition AGRRE [1, 7]: 70%
- Percent inhibition AGRRE [1, 8]: 80%
- Percent inhibition AGRRE [1, 9]: 100%
- Percent inhibition DIGSA ([2]; PPI application, 30 g/ha): 95%
- Percent inhibition DIGSA ([2]; PPI application, 100 g/ha): 100%
- Percent inhibition DIGSA ([2]; PPI application, 300 g/ha): 100%
- Percent inhibition DIGSA ([2]; PPI application, 900 g/ha): 100%
- Pre-emergence activity GR80, POLCO [3]: [empty]
- Percent inhibition SASKR ([4]; weed, PPI application, 30 g/ha): 50%
- Percent inhibition SASKR [4, 7]: 100%
- Percent inhibition SASKR [4, 8]: 95%
- Percent inhibition SASKR [4, 9]: 100%
- Pre-emergence activity (GR80) SORHA [5]: 100 g/ha
- Percent inhibition HORVX ([6]; 30 g/ha): 0%
- Percent inhibition HORVX ([6]; 100 g/ha): 0%
- Percent inhibition HORVX ([6]; 300 g/ha): 10%
- Percent inhibition HORVX ([6]; 900 g/ha): 40%

Compound: C=CCC(F)(F)S(=O)(=O)c1ncn(C(=O)N(CC)CC)n1 [Example 17, 1-(N,N-diethylcarbamoyl)-3-[(1,1-difluoro-3-butenyl)sulfonyl]-1,2,4-triazole]
- inhibition at 10 g/ha ([1]; Elymus repens, weed, PPI application, 10 g/ha, read-out: Percent inhibition AGRRE): 0%
- inhibition at 30 g/ha ([1]; Elymus repens, weed, PPI application, 30 g/ha, read-out: Percent inhibition AGRRE): 40%
- inhibition at 100 g/ha ([1]; Elymus repens, weed, PPI application, 100 g/ha, read-out: Percent inhibition AGRRE): 50%
- inhibition at 300 g/ha ([1]; Elymus repens, weed, PPI application, 300 g/ha, read-out: Percent inhibition AGRRE): 60%
- inhibition at 900 g/ha ([1]; Elymus repens, weed, PPI application, 900 g/ha, read-out: Percent inhibition AGRRE): 70%
- PPI activity GR80, AGRRE [1, 10]: 100 g/ha
- inhibition at 10 g/ha ([2]; Digitaria sanguinalis, PPI application, 10 g/ha, read-out: Percent inhibition DIGSA): 60%
- inhibition at 30 g/ha ([2]; Digitaria sanguinalis, PPI application, 30 g/ha, read-out: Percent inhibition DIGSA): 80%
- inhibition at 100 g/ha ([2]; Digitaria sanguinalis, PPI application, 100 g/ha, read-out: Percent inhibition DIGSA): 80%
- inhibition at 300 g/ha ([2]; Digitaria sanguinalis, PPI application, 300 g/ha, read-out: Percent inhibition DIGSA): 80%
- inhibition at 900 g/ha ([2]; Digitaria sanguinalis, PPI application, 900 g/ha, read-out: Percent inhibition DIGSA): 100%
- PPI activity GR80, DIGSA [2, 10]: 30 g/ha
- Pre-emergence activity GR80, POLCO [3]: 100 g/ha
- inhibition at 10 g/ha ([4]; Salsola kali, weed, PPI application, 10 g/ha, read-out: Percent inhibition SASKR): 0%
- inhibition at 30 g/ha ([4]; Salsola kali, weed, PPI application, 30 g/ha, read-out: Percent inhibition SASKR): 0%
- inhibition at 100 g/ha ([4]; Salsola kali, weed, PPI application, 100 g/ha, read-out: Percent inhibition SASKR): 0%
- inhibition at 300 g/ha ([4]; Salsola kali, weed, PPI application, 300 g/ha, read-out: Percent inhibition SASKR): 60%
- inhibition at 900 g/ha ([4]; Salsola kali, weed, PPI application, 900 g/ha, read-out: Percent inhibition SASKR): 100%
- PPI activity GR80, SASKR [4, 10]: 30 g/ha
- Pre-emergence activity (GR80) SORHA [5]: 100 g/ha
- inhibition at 10 g/ha ([6]; Hordeum vulgare, 10 g/ha, read-out: Percent inhibition HORVX): 0%
- inhibition at 30 g/ha ([6]; Hordeum vulgare, 30 g/ha, read-out: Percent inhibition HORVX): 0%
- inhibition at 100 g/ha ([6]; Hordeum vulgare, 100 g/ha, read-out: Percent inhibition HORVX): 10%
- inhibition at 300 g/ha ([6]; Hordeum vulgare, 300 g/ha, read-out: Percent inhibition HORVX): 30%
- inhibition at 900 g/ha ([6]; Hordeum vulgare, 900 g/ha, read-out: Percent inhibition HORVX): 60%
